According to ChEMBL document CHEMBL6103575, “Design, synthesis and evaluation of (E)-1-(4-(2-(1H-pyrazol-5-yl)vinyl)phenyl) derivatives as next generation selective RET inhibitors overcoming RET solvent front mutations (G810C/R)” (Eur J Med Chem, 2025):

What was measured:
BaF3 [1] = assay: Antiproliferative activity against mouse BaF3 cells harbouring KIF5B-RET assessed as inhibition of cell proliferation; format: functional, cell-based
BaF3 [2] = assay: Antiproliferative activity against mouse BaF3 cells harbouring KIF5B-RET G810C mutant assessed as inhibition of cell proliferation; format: functional, cell-based
BaF3 [3] = assay: Antiproliferative activity against mouse BaF3 cells harbouring KIF5B-RET G810R mutant assessed as inhibition of cell proliferation; format: functional, cell-based
BaF3 [4] = assay: Antiproliferative activity against mouse BaF3 cells harbouring CCDC6-RET assessed as inhibition of cell proliferation incubated for 72 hrs by CCK-8 assay; format: functional, cell-based; details: BaF3, 72 h
BaF3 [5] = assay: Antiproliferative activity against mouse BaF3 cells harbouring CCDC6-RET V804M mutant assessed as inhibition of cell proliferation incubated for 72 hrs by CCK-8 assay; format: functional, cell-based; details: BaF3, 72 h
BaF3 [6] = assay: Antiproliferative activity against mouse BaF3 cells harbouring CCDC6-RET G810C mutant assessed as inhibition of cell proliferation incubated for 72 hrs by CCK-8 assay; format: functional, cell-based; details: BaF3, 72 h
BaF3 [7] = assay: Antiproliferative activity against mouse BaF3 cells harbouring CCDC6-RET G810R mutant assessed as inhibition of cell proliferation incubated for 72 hrs by CCK-8 assay; format: functional, cell-based; details: BaF3, 72 h
BaF3 [8] = assay: Antiproliferative activity against mouse BaF3 cells harbouring CCDC6-RET
BaF3 [9] = assay: Antiproliferative activity against mouse BaF3 cells harbouring CCDC6-RET V804M mutant; format: functional, cell-based
BaF3 [10] = assay: Antiproliferative activity against mouse BaF3 cells harbouring CCDC6-RET G810C mutant; format: functional, cell-based
BaF3 [11] = assay: Antiproliferative activity against mouse BaF3 cells harbouring CCDC6-RET G810R mutant; format: functional, cell-based
[12] = target: Kinesin-1 heavy chain/ Tyrosine-protein kinase receptor RET (Homo sapiens, UniProt P07949); assay: Inhibition of wild type KIF5B-RET (unknown origin); format: protein assay
[13] = target: Proto-oncogene tyrosine-protein kinase receptor Ret (Homo sapiens, UniProt P07949, G810R); assay: Inhibition of RET G810R mutant (unknown origin)
[14] = target: Proto-oncogene tyrosine-protein kinase receptor Ret (Homo sapiens, UniProt P07949, V804M); assay: Inhibition of RET V804M mutant (unknown origin)
BaF3 [15] = assay: Antiproliferative activity against mouse BaF3 cells harbouring CCDC6-RET V804M mutant assessed as inhibition of cell proliferation; format: functional, cell-based

Proto-oncogene tyrosine-protein kinase receptor Ret (Homo sapiens, UniProt P07949, G810R), sequence (P07949 29-1114 G810R limits assumed): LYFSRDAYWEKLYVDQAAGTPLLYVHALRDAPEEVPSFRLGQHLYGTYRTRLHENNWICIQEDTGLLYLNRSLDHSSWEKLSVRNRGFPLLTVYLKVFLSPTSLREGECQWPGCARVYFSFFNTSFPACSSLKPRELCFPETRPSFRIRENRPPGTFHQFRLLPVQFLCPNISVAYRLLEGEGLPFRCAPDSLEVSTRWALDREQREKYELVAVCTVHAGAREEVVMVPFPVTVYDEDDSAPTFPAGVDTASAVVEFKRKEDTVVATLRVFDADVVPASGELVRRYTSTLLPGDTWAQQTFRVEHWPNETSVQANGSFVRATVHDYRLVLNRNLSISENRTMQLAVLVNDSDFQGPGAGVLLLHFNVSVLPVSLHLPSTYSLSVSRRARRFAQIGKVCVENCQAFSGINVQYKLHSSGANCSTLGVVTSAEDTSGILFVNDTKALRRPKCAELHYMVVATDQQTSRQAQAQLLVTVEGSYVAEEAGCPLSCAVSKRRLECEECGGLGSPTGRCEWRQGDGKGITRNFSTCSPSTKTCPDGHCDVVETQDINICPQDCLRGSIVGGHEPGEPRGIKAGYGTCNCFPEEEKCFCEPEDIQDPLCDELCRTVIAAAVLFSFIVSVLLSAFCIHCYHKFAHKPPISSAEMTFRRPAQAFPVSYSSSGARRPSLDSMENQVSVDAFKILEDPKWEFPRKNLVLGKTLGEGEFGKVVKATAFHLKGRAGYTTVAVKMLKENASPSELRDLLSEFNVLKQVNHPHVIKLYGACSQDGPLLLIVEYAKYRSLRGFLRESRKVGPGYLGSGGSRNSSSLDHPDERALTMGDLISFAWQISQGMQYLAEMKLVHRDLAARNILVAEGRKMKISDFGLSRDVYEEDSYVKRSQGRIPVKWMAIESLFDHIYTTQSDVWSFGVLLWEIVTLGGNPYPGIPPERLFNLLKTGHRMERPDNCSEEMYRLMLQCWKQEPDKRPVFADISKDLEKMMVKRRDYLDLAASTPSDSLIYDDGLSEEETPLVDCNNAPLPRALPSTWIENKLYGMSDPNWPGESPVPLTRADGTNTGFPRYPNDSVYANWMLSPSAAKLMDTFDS
Proto-oncogene tyrosine-protein kinase receptor Ret (Homo sapiens, UniProt P07949, V804M), sequence (P07949 29-1114 V804M limits assumed): as the sequence (P07949 29-1114 G810R limits assumed) above, with V776M, R782G counted along it
Kinesin-1 heavy chain/ Tyrosine-protein kinase receptor RET, sequence (P07949 whole entry): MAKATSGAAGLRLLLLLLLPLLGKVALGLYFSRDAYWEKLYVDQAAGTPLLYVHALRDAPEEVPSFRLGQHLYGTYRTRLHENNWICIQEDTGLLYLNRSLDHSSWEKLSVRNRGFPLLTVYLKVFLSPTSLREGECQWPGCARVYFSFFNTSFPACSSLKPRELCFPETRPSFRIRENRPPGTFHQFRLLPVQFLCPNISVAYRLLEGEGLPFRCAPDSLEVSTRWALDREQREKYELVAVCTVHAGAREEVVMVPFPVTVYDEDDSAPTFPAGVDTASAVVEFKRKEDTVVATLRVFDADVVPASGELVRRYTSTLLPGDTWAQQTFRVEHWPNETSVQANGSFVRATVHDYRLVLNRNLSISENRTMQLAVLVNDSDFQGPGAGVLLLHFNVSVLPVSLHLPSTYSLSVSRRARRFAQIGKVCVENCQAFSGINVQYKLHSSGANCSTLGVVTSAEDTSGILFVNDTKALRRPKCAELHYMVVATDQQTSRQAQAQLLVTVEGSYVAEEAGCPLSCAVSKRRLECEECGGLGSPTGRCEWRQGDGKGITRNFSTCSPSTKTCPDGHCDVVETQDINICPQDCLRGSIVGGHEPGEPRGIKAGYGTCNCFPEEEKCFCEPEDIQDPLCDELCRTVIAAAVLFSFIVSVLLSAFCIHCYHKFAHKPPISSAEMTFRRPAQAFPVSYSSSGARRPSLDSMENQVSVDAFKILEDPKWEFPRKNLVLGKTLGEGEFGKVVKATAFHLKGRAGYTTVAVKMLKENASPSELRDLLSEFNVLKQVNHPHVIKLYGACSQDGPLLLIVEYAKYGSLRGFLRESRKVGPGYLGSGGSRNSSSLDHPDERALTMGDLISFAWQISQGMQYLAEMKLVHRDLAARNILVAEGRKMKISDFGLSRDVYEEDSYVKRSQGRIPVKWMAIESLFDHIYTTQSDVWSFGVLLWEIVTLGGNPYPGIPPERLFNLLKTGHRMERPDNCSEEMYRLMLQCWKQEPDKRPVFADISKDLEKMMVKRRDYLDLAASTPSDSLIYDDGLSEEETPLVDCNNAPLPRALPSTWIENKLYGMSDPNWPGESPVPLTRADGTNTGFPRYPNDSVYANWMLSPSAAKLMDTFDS
Kinesin-1 heavy chain/ Tyrosine-protein kinase receptor RET, sequence (P33176 whole entry, further chain): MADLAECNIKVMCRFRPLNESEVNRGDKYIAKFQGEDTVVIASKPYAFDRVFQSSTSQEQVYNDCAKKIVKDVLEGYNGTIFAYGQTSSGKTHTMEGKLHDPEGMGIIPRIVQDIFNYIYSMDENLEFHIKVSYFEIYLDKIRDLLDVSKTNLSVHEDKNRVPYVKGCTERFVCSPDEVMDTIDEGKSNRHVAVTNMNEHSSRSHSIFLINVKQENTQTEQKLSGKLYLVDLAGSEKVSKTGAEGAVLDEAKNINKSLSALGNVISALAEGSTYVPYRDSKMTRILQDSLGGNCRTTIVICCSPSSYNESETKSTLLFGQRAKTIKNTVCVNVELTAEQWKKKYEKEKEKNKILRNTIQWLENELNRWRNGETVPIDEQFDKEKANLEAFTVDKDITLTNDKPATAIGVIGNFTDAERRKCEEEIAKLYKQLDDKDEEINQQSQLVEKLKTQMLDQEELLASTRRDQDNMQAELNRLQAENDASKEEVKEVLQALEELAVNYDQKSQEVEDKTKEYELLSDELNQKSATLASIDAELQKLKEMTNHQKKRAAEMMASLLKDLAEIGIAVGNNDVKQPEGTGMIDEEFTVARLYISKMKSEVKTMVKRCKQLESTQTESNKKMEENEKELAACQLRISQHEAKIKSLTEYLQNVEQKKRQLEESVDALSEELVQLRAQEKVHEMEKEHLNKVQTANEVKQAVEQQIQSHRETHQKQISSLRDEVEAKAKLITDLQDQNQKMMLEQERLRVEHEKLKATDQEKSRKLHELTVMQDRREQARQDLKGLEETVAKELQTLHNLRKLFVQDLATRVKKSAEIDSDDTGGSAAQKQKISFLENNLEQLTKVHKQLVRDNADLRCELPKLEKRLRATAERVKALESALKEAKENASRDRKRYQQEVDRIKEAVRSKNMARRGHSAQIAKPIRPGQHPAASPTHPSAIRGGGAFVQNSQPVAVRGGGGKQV

SMILES	IC50 (BaF3 [4])	IC50 (BaF3 [5])	IC50 (BaF3 [6])	IC50 (BaF3 [7])	further results
C[C@H]1CNC(=O)c2cnn3cc4c(nc23)N(Cc2cc(F)cnc2O1)[C@@H]1CCC[C@@H]1O4 [ENBEZOTINIB]					IC50 (BaF3 [1]): 0.001 µM; IC50 (BaF3 [2]): 0.001 µM; IC50 (BaF3 [3]): 0.001 µM
COc1cncc(-c2cn[nH]c2/C=C/c2ccc(NC(=O)Nc3cc(C(C)(C)C(F)(F)F)on3)cc2C)c1	0.271 µM	0.632 µM	0.499 µM	0.471 µM	
CO[C@]1(C(=O)N[C@@H](C)c2ccc(-n3cc(F)cn3)nc2)CC[C@H](c2nc(C)cc(Nc3cc(C)[nH]n3)n2)CC1 [PRALSETINIB]	0.0039 µM	0.0049 µM	0.104 µM	0.32 µM	IC50 (BaF3 [8]): 0.005 µM; IC50 (BaF3 [9]): 0.0041 µM; IC50 (BaF3 [10]): 0.114 µM; IC50 (BaF3 [11]): 0.358 µM
COc1cncc(-c2cn[nH]c2/C=C/c2ccc(NC(=O)Nc3cc(C(C)(C)C(F)(F)F)on3)c(F)c2)c1	0.0123 µM	0.564 µM	0.0455 µM	0.022 µM	
COc1ccc(-c2cn[nH]c2/C=C/c2ccc(NC(=O)Nc3cc(C(C)(C)C(F)(F)F)on3)cc2)cn1	0.0985 µM	2.02 µM	0.117 µM	0.301 µM	
COc1cncc(-c2cn[nH]c2/C=C/c2ccc(NC(=O)Nc3cc(C(C)(C)C(F)(F)F)on3)c(OC)c2)c1	0.21 µM	0.754 µM	0.404 µM	0.352 µM	
COc1cc(-c2cn[nH]c2/C=C/c2ccc(NC(=O)Nc3cc(C(C)(C)C(F)(F)F)on3)cc2)ccn1	0.0854 µM	1.22 µM	0.121 µM	0.208 µM	
COc1cncc(-c2cn(C)nc2/C=C/c2ccc(NC(=O)Nc3cc(C(C)(C)C(F)(F)F)on3)cc2)c1	0.126 µM	0.719 µM	0.421 µM	1.13 µM	
COc1ccc(-c2c[nH]nc2-c2ccc(NC(=O)Nc3cc(C(C)(C)C(F)(F)F)on3)cc2)cn1	0.435 µM	0.231 µM	0.363 µM	0.658 µM	
COc1ccc(-c2cn[nH]c2CCc2ccc(NC(=O)Nc3cc(C(C)(C)C(F)(F)F)on3)cc2)cn1	0.79 µM	3.61 µM	0.718 µM	1.03 µM	
COc1cncc(-c2cn[nH]c2/C=C/c2ccc(NC(=O)Nc3cc(C(C)(C)C(F)(F)F)on3)cc2OC)c1	0.133 µM	1.05 µM	0.7 µM	0.443 µM	
COc1cncc(-c2cn[nH]c2/C=C/c2ccc(NC(=O)Nc3cc(C(C)(C)C(F)(F)F)on3)cc2Cl)c1	0.108 µM	0.421 µM	0.309 µM	0.246 µM	
CN1CCN(Cc2ccc(NC(=O)c3cncc(C#Cc4cnc(N)c5ncccc45)c3)cc2C(F)(F)F)CC1					IC50 [12]: 0.00389 µM; IC50 [13]: 0.0288 µM; IC50 [14]: 0.0288 µM
COc1cncc(-c2cn[nH]c2/C=C/c2ccc(NC(=O)Nc3cc(C(C)(C)C(F)(F)F)on3)cc2F)c1	0.127 µM	0.536 µM	0.173 µM	0.179 µM	
CNC(=O)c1cncc(-c2cn[nH]c2/C=C/c2ccc(NC(=O)Nc3cc(C(C)(C)C(F)(F)F)on3)cc2)c1	0.222 µM	3.07 µM	0.737 µM	1.21 µM	
COc1ccc(CN2[C@@H]3C[C@H]2CN(c2ccc(-c4cc(OCC(C)(C)O)cn5ncc(C#N)c45)cn2)C3)cn1					IC50 (BaF3 [15]): 0.026 µM
COc1cncc(-c2cn[nH]c2/C=C/c2ccc(NC(=O)Nc3cc(C(C)(C)C(F)(F)F)on3)c(C)c2)c1	0.0131 µM	0.803 µM	0.0264 µM	0.0294 µM	

Continued, in another order:

IC50 (BaF3 [4])	IC50 (BaF3 [5])	IC50 (BaF3 [6])	IC50 (BaF3 [7])	SMILES	further results
0.147 µM	0.594 µM	0.042 µM	0.143 µM	CC(C)(c1cc(NC(=O)Nc2ccc(/C=C/c3[nH]ncc3-c3cncc(F)c3)cc2)no1)C(F)(F)F	
0.406 µM	1.79 µM	0.694 µM	0.812 µM	COc1cncc(-c2c[nH]nc2/C=C\c2ccc(NC(=O)Nc3cc(C(C)(C)C(F)(F)F)on3)cc2)c1	
0.0894 µM	1.02 µM	0.377 µM	0.428 µM	COC(=O)c1cncc(-c2cn[nH]c2/C=C/c2ccc(NC(=O)Nc3cc(C(C)(C)C(F)(F)F)on3)cc2)c1	
0.223 µM	1.52 µM	0.641 µM	0.836 µM	COc1cncc(-c2cnn(C)c2/C=C/c2ccc(NC(=O)Nc3cc(C(C)(C)C(F)(F)F)on3)cc2)c1	
0.175 µM	0.844 µM	0.205 µM	0.278 µM	CC(C)(c1cc(NC(=O)Nc2ccc(/C=C/c3[nH]ncc3-c3cncc(C#N)c3)cc2)no1)C(F)(F)F	
1.06 µM	1.81 µM	0.777 µM	2.2 µM	COc1cncc(-c2cn[nH]c2/C=C/c2cccc(NC(=O)Nc3cc(C(C)(C)C(F)(F)F)on3)c2)c1	
0.046 µM	0.554 µM	0.046 µM	0.133 µM	COc1cncc(-c2cn[nH]c2/C=C/c2ccc(NC(=O)Nc3cc(C(C)(C)C(F)(F)F)on3)cc2)c1	
